Results: ChEMBL document CHEMBL4052681, “Discovery of simplified leucyladenylate sulfamates as novel leucyl-tRNA synthetase (LRS)-targeted mammalian target of rapamycin complex 1 (mTORC1) inhibitors” (Bioorg Med Chem, 2017)
Active and inactive are the calls of the source. No cut-off for these calls is given here.

How the values were obtained:
A549 = test: Growth inhibition of human A549 cells incubated for 72 hrs by sulforhodamine B assay; format: functional, cell-based; details: A549, 72 h
SK-HEP1 = test: Growth inhibition of human SKHEP1 cells incubated for 72 hrs by sulforhodamine B assay; format: functional, cell-based; details: SK-HEP1, 72 h
HCT-116 = test: Growth inhibition of human HCT116 cells incubated for 72 hrs by sulforhodamine B assay; format: functional, cell-based; details: HCT-116, 72 h
[1] = target: T1, Leucine--tRNA ligase, cytoplasmic (Homo sapiens, UniProt Q9P2J5); test: Inhibition of LRS canonical enzyme activity in HEK293 cells assessed as effect on enzyme-mediated aminoleucylation; format: cell-based
Target sequence in this assay (Q9P2J5 whole entry): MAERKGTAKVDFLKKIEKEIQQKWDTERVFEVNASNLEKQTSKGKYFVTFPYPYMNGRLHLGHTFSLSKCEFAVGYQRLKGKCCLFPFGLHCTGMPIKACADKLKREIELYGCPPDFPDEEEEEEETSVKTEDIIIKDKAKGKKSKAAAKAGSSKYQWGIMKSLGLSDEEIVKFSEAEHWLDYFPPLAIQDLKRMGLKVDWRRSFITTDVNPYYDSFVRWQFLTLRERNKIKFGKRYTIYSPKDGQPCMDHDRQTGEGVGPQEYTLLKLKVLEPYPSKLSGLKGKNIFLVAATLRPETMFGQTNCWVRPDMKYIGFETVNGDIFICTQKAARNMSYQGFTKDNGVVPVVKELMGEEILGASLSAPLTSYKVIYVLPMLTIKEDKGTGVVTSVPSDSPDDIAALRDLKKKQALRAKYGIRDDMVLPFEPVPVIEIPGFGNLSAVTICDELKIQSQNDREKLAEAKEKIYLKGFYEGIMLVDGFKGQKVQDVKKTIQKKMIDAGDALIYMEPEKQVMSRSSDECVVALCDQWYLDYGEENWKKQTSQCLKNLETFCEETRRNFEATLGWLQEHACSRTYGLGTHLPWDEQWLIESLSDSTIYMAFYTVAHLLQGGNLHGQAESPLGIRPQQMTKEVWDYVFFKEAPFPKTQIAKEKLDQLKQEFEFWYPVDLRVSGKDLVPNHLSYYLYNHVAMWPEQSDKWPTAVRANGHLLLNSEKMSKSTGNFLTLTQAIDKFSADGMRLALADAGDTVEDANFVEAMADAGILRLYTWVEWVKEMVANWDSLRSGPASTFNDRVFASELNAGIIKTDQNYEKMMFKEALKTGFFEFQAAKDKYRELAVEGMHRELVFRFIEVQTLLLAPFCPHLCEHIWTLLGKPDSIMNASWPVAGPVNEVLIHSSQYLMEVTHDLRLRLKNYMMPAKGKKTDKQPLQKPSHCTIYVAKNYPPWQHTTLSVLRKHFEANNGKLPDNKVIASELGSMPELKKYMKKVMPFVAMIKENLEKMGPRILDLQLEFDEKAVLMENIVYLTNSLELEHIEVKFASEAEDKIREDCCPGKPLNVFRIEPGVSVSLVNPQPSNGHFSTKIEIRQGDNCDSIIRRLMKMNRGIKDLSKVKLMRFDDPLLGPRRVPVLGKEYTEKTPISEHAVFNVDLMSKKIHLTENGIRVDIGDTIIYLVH

MRC5 = test: Growth inhibition of human MRC5 cells incubated for 72 hrs by sulforhodamine B assay; format: cell-based; details: MRC5, 72 h
K562 = test: Growth inhibition of human K562 cells incubated for 72 hrs by sulforhodamine B assay; format: functional, cell-based; details: K562, 72 h
MDA-MB-231 = test: Growth inhibition of human MDA-MB-231 cells incubated for 72 hrs by sulforhodamine B assay; format: functional, cell-based; details: MDA-MB-231, 72 h
SNU-638 = test: Growth inhibition of human SNU638 cells incubated for 72 hrs by sulforhodamine B assay; format: functional, cell-based; details: SNU-638, 72 h
[2] = target: T1, Leucine--tRNA ligase, cytoplasmic; test: Inhibition of LRS-dependent mTORC1 activation in HEK293 cells assessed as reduction in leucine-induced mTORC1-mediated S6 Kinase phosphorylation pretreated before leucine stimulation measured after 10 mins by immunoblot analysis; format: cell-based
[3] = target: T1, Leucine--tRNA ligase, cytoplasmic; test: Inhibition of LRS-dependent mTORC1 activation in HEK293 cells assessed as reduction in leucine-induced mTORC1-mediated S6 Kinase phosphorylation at 200 uM pretreated before leucine stimulation measured after 10 mins by immunoblot analysis; format: cell-based
Target sequence in this assay (Q9P2J5 whole entry, looked up): as the sequence (Q9P2J5 whole entry) above

[4] = target: T1, Leucine--tRNA ligase, cytoplasmic; test: Inhibition of LRS-dependent mTORC1 activation in HEK293 cells assessed as reduction in leucine-induced mTORC1-mediated S6 Kinase phosphorylation at 100 nM pretreated before leucine stimulation measured after 10 mins by immunoblot analysis; format: cell-based
Target sequence in this assay (Q9P2J5 whole entry, looked up): as the sequence (Q9P2J5 whole entry) above

[5] = target: T1, Leucine--tRNA ligase, cytoplasmic; test: Inhibition of LRS-dependent mTORC1 activation in HEK293 cells assessed as reduction in leucine-induced mTORC1-mediated S6 Kinase phosphorylation at 20 to 200 uM pretreated before leucine stimulation measured after 10 mins by immunoblot analysis; format: cell-based
Target sequence in this assay (Q9P2J5 whole entry, looked up): as the sequence (Q9P2J5 whole entry) above

Structure (SMILES) | IC50 (A549) [µM] | IC50 (SK-HEP1) [µM] | IC50 (HCT-116) [µM] | IC50 (MRC5) [µM] | IC50 (K562) [µM] | IC50 (MDA-MB-231) [µM] | IC50 (SNU-638) [µM] | inhibition of S6K phosphorylation (qualitative) [3] | also measured
COc1ccc(CNS(=O)(=O)c2ccc(N3C(=O)N[C@@H](CC(C)C)C3=O)cc2)cc1OC | 5.54 | 2.44 | 4.28 | > 20 | 2.86 | 5.65 | 5.22 | – | IC50 [1]: > 800 µM; IC50 [2]: 26.4 µM; inhibition [2]: Dose-dependent effect
COc1ccc(CNS(=O)(=O)c2ccc(NC(=O)[C@@H](N)CC(C)C)cc2)cc1OC | 5.29 | 3.07 | 3.96 | > 20 | 4.48 | 5.44 | 6.26 | Active | IC50 [1]: > 800 µM; IC50 [2]: 44.9 µM; inhibition [2]: Dose-dependent effect
CO[C@H]1C[C@@H]2CC[C@@H](C)[C@@](O)(O2)C(=O)C(=O)N2CCCC[C@H]2C(=O)O[C@H]([C@H](C)C[C@@H]2CC[C@@H](O)[C@H](OC)C2)CC(=O)[C@H](C)/C=C(\C)[C@@H](O)[C@@H](OC)C(=O)[C@H](C)C[C@H](C)/C=C/C=C/C=C/1C | – | – | – | – | – | – | – | – | inhibition [4]: Active
CC(C)C[C@H](O)C(=O)NS(=O)(=O)OC[C@H]1O[C@@H](n2cnc3c(N)nc(I)nc32)[C@H](O)[C@@H]1O | – | – | – | – | – | – | – | Active | –
COc1ccc(CNS(=O)(=O)c2ccc(N3C[C@H](CC(C)C)NC3=O)cc2)cc1OC | – | – | – | – | – | – | – | – | inhibition [5]: inactive
COc1ccc(CNS(=O)(=O)c2ccc(NC(=O)[C@@H](O)[C@H](O)C(C)C)cc2)cc1OC | – | – | – | – | – | – | – | Active | –
COc1cc([C@@H]2c3cc4c(cc3[C@@H](O[C@@H]3O[C@@H]5CO[C@@H](C)O[C@H]5[C@H](O)[C@H]3O)[C@H]3COC(=O)[C@H]23)OCO4)cc(OC)c1O [ETOPOSIDE] | 0.3 | 0.63 | 1.06 | 11.7 | 0.76 | 1.53 | 1.05 | – | –
COc1ccc(CNS(=O)(=O)c2ccc(NC(=O)[C@@H](O)CC(C)C)cc2)cc1OC | – | – | – | – | – | – | – | Active | –
